Reference: patent US10968236B2, “TYK2 inhibitors and uses thereof” (Nimbus Lakshmi, Inc., priority 2015, dated 2021)
Counter-ions that a name gives are not always drawn.

What was measured:
[1] = biological target: TYK2 (Homo sapiens (Human), UniProt P29597); assay: Tyk2 activity inhibition assay (radioactive kinase / Caliper assay); type: biochemical
Method: (§1) Peptide substrate, [KKSRGDYMTMQIG], (20 μM) is prepared in reaction buffer (20 mM Hepes pH 7.5, 10 mM MgCl2, 1 mM EGTA, 0.02% Brij35, 0.02 mg/mL BSA, 0.1 mM […], 2 mM DTT, 1% DMSO. TYK2 (Invitrogen) kinase is added, followed by compounds in DMSO. 33PATP is added to initiate the reaction in ATP at 10 μM. Kinase reaction is incubated for 120 min at room temp and reactions are spotted onto P81 ion exchange paper (Whatman #3698-915), and then washed extensively in 0.75% phosphoric acid, prior to reading the radioactivity counts. For JAK2 (Invitrogen) kinase assay the peptide substrate poly[Glu:Tyr] (4:1), 0.2 mg/ml is used, in the reaction carried out the same as for TYK2.
(§2) The caliper machine employs an off chip mobility shift assay to detect phosphorylated peptide substrates from kinase assays, using microfluidics technology. The assays are carried out at ATP concentration equivalent to the ATP Km, and at 1 mM ATP. Compounds are serially diluted in DMSO then further diluted in assay buffer (25 mM HEPES, pH 7.5, 0.01% Brij-35, 0.01% Triton, 0.5 mM EGTA). 5 ul of diluted compound was added into wells first, then 10 ul of enzyme mix was added into wells, followed by 10 uL of substrate mix (peptide and ATP in 10 mM MgCl2) to start reaction. Reaction was incubated at 28° C. for 25 min and then added 25 ul stop buffer (100 mM HEPES, 0.015% Brij-35, 50 mM EDTA), followed by reading with Caliper. JAK2 at 1 nM final concentration and TYK2 at 9.75 nM are from Carna, and substrates used are ATP at 20 and 16 uM, respectively. JAK2 assay uses peptide 22 and TYK2 uses peptide 30 (Caliper), each at 3 uM.
(§3) The compound numbers correspond to the compound numbers in Table 1. Compounds having an activity designated as “A” provided an Ki≤0.01 μM; compounds having an activity designated as “B” provided an Ki of 0.01-0.1 μM; compounds having an activity designated as “C” provided an Ki of 0.1-1.0 μM; and compounds having an activity designated as “D” provided an Ki≥1.0 μM.

[2] = biological target: JAK2 (Homo sapiens (Human), UniProt O60674); assay: JAK2 activity inhibition assay (radioactive kinase / Caliper assay); type: biochemical
Method: as §1, §2, §3

Chain of TYK2 (P29597 whole entry): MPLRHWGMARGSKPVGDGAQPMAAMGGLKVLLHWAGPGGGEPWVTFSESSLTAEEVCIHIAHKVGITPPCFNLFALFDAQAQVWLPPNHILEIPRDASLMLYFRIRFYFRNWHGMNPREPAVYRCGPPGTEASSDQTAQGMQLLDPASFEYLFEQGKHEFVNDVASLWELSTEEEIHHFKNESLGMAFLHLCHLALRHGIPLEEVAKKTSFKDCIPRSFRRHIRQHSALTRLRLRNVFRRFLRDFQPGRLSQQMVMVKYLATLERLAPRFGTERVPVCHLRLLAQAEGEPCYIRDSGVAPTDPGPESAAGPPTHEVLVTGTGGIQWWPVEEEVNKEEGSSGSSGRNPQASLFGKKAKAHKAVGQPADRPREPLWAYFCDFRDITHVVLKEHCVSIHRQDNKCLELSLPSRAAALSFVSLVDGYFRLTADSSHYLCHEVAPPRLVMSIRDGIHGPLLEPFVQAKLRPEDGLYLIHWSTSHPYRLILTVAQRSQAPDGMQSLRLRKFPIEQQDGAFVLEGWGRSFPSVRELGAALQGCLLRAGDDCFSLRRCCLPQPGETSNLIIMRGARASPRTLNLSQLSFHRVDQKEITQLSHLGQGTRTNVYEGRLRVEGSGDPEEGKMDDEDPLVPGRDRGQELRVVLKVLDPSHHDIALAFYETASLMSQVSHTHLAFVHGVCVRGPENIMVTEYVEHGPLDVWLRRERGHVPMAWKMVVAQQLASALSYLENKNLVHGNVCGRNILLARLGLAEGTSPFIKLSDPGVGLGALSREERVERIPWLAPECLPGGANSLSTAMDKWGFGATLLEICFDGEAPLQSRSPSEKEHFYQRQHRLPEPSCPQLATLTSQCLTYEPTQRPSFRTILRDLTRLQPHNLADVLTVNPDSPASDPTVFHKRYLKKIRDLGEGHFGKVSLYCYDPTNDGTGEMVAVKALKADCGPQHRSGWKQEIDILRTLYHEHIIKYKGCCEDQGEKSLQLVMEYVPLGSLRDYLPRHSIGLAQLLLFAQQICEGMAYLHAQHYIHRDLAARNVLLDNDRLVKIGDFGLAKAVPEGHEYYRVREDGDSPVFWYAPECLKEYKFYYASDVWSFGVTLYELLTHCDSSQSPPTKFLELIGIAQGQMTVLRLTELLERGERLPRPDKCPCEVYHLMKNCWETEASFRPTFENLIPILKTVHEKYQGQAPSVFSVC
Chain of JAK2 (O60674 whole entry): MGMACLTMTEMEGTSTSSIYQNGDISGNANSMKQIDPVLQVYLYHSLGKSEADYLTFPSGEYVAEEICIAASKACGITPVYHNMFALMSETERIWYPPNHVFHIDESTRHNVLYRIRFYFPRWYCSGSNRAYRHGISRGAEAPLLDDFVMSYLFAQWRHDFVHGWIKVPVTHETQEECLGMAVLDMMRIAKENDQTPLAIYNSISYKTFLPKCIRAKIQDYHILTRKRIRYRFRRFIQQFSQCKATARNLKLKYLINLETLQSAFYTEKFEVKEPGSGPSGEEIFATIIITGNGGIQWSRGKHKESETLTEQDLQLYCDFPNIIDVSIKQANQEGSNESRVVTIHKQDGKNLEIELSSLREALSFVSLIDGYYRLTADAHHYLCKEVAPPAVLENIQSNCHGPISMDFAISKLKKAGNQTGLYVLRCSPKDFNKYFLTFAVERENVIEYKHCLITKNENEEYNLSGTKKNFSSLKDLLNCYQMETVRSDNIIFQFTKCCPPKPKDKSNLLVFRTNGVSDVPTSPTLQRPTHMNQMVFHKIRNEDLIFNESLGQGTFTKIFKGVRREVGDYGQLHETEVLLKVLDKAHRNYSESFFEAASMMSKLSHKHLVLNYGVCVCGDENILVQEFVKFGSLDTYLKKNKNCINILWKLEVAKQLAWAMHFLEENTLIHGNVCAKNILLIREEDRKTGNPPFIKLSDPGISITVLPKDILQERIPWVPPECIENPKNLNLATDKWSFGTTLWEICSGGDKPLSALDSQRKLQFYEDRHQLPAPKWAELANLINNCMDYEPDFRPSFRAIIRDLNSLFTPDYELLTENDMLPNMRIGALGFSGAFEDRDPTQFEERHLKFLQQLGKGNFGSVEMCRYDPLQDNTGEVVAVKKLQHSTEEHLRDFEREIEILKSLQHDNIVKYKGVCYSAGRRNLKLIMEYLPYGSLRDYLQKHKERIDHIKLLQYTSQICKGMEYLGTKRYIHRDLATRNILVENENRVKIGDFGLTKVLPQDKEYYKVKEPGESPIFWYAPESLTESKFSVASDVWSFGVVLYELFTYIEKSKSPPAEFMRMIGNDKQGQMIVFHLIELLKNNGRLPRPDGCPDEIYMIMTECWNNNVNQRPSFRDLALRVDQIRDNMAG

SMILES	Ki [1]	Ki [2]
Nc1ccc2ccn(-c3cc(-c4c(F)cccc4F)nc4c3C(=O)NC4)c2n1 [Compound I-19, 4-(6-amino-1H-pyrrolo[2,3-b]pyridin-1-yl)-2-(2,6-difluorophenyl)-6,7-dihydro-5H-pyrrolo[3,4-b]pyridin-5-one]	10 to 100 nM	≥ 1000 nM
N#Cc1cccc(F)c1-c1cc(Nc2ccc(N3C[C@H]4COC[C@H]4C3)nc2)c2c(n1)CNC2=O [Compound I-74, 3-fluoro-2-(5-oxo-4-((6-((3aR,6aS)-tetrahydro-1H-furo[3,4-c]pyrrol-5(3H)-yl)pyridin-3-yl)amino)-6,7-dihydro-5H-pyrrolo[3,4-b]pyridin-2-yl)benzonitrile]	≤ 10 nM	100 to 1000 nM
O=C1NCc2nc(-c3c(F)cccc3F)cc(Nc3ccc4c(c3)CS(=O)(=O)C4)c21 [Compound I-86, 2-(2,6-difluorophenyl)-4-((2,2-dioxido-1,3-dihydro-benzo[c]thio-phen-5-yl)amino)-6,7-dihydro-5H-pyrrolo[3,4-b]pyridin-5-one]	≤ 10 nM	10 to 100 nM
CC1(C)Cc2ccc(Nc3cc(-c4c(F)cccc4F)nc4c3C(=O)NC4)cc2O1 [Compound I-71, 2-(2,6-difluorophenyl)-4-((2,2-dimethyl-2,3-dihydrobenzofuran-6-yl)amino)-6,7-dihydro-5H-pyrrolo[3,4-b]pyridin-5-one]	10 to 100 nM	100 to 1000 nM
O=C1NCc2nc(-c3c(F)cccc3F)cc(Nc3ccc4cc[nH]c4n3)c21 [Compound I-21, 4-((1H-pyrrolo[2,3-b]pyridin-6-yl)amino)-2-(2,6-difluoro-phenyl)-6,7-dihydro-5H-pyrrolo[3,4-b]pyridin-5-one]	≤ 10 nM	10 to 100 nM
O=C1NCc2nc(-c3c(F)cccc3F)cc(Nc3ccc(N4CCOCC45CC5)cn3)c21 [Compound I-47, 4-((5-(7-oxa-4-azaspiro[2.5]octan-4-yl)pyridin-2-yl)amino)-2-(2,6-difluorophenyl)-6,7-dihydro-5H-pyrrolo[3,4-b]pyridin-5-one]	≤ 10 nM	≤ 10 nM
CCNC(=O)C(O)(CC(F)(F)F)c1ccc(Nc2nc(-c3c(F)cccc3F)nc3c2C(=O)NC3)cc1 (stereo not drawn) [Compound I-26, 2-(4-((2-(2,6-difluorophenyl)-5-oxo-6,7-dihydro-5H-pyrrolo[3,4-d]pyrimidin-4-yl)amino)phenyl)-N-ethyl-4,4,4-trifluoro-2-hydroxybutanamide]	≤ 10 nM	100 to 1000 nM
O=C1NCc2nc(-c3c(F)cccc3F)nc(Nc3ccc(C(=O)N4CC5CCC(C4)O5)cc3)c21 [Compound I-5, 4-((4-(8-oxa-3-azabicyclo[3.2.1]octane-3-carbonyl)phenyl)-amino)-2-(2,6-difluorophenyl)-6,7-dihydro-5H-pyrrolo[3,4-d]pyrimidin-5-one]	≤ 10 nM	100 to 1000 nM
O=C1NCc2nc(-c3c(F)cccc3F)cc(Nc3ccc4c(n3)NCC4)c21 [Compound I-22, 2-(2,6-difluorophenyl)-4-((2,3-dihydro-1H-pyrrolo[2,3-b]pyridin-6-yl)amino)-6,7-dihydro-5H-pyrrolo[3,4-b]pyridin-5-one]	≤ 10 nM	10 to 100 nM
CC1(C)Cc2ccc(Nc3nc(-c4c(F)cccc4F)nc4c3C(=O)NC4)cc2N1 [Compound I-3, 2-(2,6-difluorophenyl)-4-((2,2-dimethylindolin-6-yl)amino)-6,7-dihydro-5H-pyrrolo[3,4-d]pyrimidin-5-one]	≤ 10 nM	100 to 1000 nM
O=C1NCc2nc(-c3c(F)cccc3F)cc(Nc3ccc4c(c3)OCO4)c21 [Compound I-68, 4-(benzo[d][1,3]dioxol-5-ylamino)-2-(2,6-difluorophenyl)-6,7-dihydro-5H-pyrrolo[3,4-b]pyridin-5-one]	10 to 100 nM	100 to 1000 nM
O=C1NCc2nc(-c3c(F)cccc3F)cc(Nc3ccc4c(c3)OC3(CC3)C4=O)c21 [Compound I-77, 2-(2,6-difluorophenyl)-4-((3-oxo-3H-spiro[benzofuran-2,1′-cyclopropan]-6-yl)amino)-6,7-dihydro-5H-pyrrolo[3,4-b]pyridin-5-one]	≤ 10 nM	10 to 100 nM
C[C@@](N)(C(=O)O)c1ccc(Nc2nc(-c3c(F)cccc3F)nc3c2C(=O)NC3)cc1 [Compound I-45, (S)-2-amino-2-(4-((2-(2,6-difluorophenyl)-5-oxo-6,7-dihydro-5H-pyrrolo[3,4-d]pyrimidin-4-yl)amino)phenyl)propanoic acid hydrochloride]	≤ 10 nM	100 to 1000 nM
C[C@@](O)(C(=O)O)c1ccc(Nc2nc(-c3c(F)cccc3F)nc3c2C(=O)NC3)cc1 [Compound I-7, (S)-2-(4-((2-(2,6-difluorophenyl)-5-oxo-6,7-dihydro-5H-pyrrolo[3,4-d]pyrimidin-4-yl)amino)phenyl)-2-hydroxypropanoic acid]	≤ 10 nM	100 to 1000 nM
O=C1NCc2nc(-c3c(F)cccc3F)cc(Nc3ccc(C(=O)N4CCOCC45CC5)cc3)c21 [Compound I-51, 4-((4-(7-oxa-4-azaspiro[2.5]octane-4-carbonyl)phenyl)amino)-2-(2,6-difluorophenyl)-6,7-dihydro-5H-pyrrolo[3,4-b]pyridin-5-one]	≤ 10 nM	≤ 10 nM

Next, values leading:

Ki [1]	Ki [2]	SMILES
≤ 10 nM	≤ 10 nM	O=C1NCc2nc(-c3c(F)cccc3F)cc(Nc3ccc(N4CCC5(CC4)COC5)cn3)c21 [Compound I-24, 4-((5-(2-oxa-7-azaspiro[3.5]nonan-7-yl)pyridin-2-yl)amino)-2-(2,6-difluorophenyl)-6,7-dihydro-5H-pyrrolo[3,4-b]pyridin-5-one]
≤ 10 nM	100 to 1000 nM	C[C@](O)(C(=O)O)c1ccc(Nc2nc(-c3c(F)cccc3F)nc3c2C(=O)NC3)cc1 [Compound I-8, (R)-2-(4-((2-(2,6-difluorophenyl)-5-oxo-6,7-dihydro-5H-pyrrolo[3,4-d]pyrimidin-4-yl)amino)phenyl)-2-hydroxypropanoic acid]
≤ 10 nM	100 to 1000 nM	O=C1NCc2nc(-c3c(F)cccc3F)nc(Nc3ccc(OC(CO)CO)cc3)c21 [Compound I-12, 2-(2,6-difluorophenyl)-4-((4-((1,3-dihydroxypropan-2-yl)oxy)phenyl)amino)-6,7-dihydro-5H-pyrrolo[3,4-d]pyrimidin-5-one]
≤ 10 nM	10 to 100 nM	N#Cc1cccc(F)c1-c1cc(Nc2ccc(N3CC[C@]4(C[C@@H](O)CO4)C3)cn2)c2c(n1)CNC2=O [Compound I-92, 3-fluoro-2-(4-((5-((3R,5S)-3-hydroxy-1-oxa-7-azaspiro[4.4]nonan-7-yl)pyridin-2-yl)amino)-5-oxo-6,7-dihydro-5H-pyrrolo[3,4-b]pyridin-2-yl)benzonitrile]
≤ 10 nM	10 to 100 nM	CC(O)(c1ccc(Nc2cc(-c3c(F)cccc3F)nc3c2C(=O)NC3)cc1)C(F)(F)F (stereo not drawn) [Compound I-42, 2-(2,6-difluorophenyl)-4-((4-(1,1,1-trifluoro-2-hydroxypropan-2-yl)phenyl)amino)-6,7-dihydro-5H-pyrrolo[3,4-b]pyridin-5-one]
≤ 10 nM	≤ 10 nM	CC1(c2ccc(Nc3cc(-c4c(F)cccc4F)nc4c3C(=O)NC4)nc2)CC(C)(C)N(C2=CCOCC2)C1=O (stereo not drawn) [Compound I-55, 2-(2,6-difluorophenyl)-4-((5-(1-(3,6-dihydro-2H-pyran-4-yl)-3,5,5-trimethyl-2-oxopyrrolidin-3-yl)pyridin-2-yl)amino)-6,7-dihydro-5H-pyrrolo[3,4-b]pyridin-5-one]
≤ 10 nM	10 to 100 nM	CC1(C)COc2cc(Nc3cc(-c4c(F)cccc4C#N)nc4c3C(=O)NC4)ccc21 [Compound I-80, 2-(4-((3,3-dimethyl-2,3-dihydrobenzofuran-6-yl)amino)-5-oxo-6,7-dihydro-5H-pyrrolo[3,4-b]pyridin-2-yl)-3-fluorobenzonitrile]
≤ 10 nM	100 to 1000 nM	CCNC(=O)C(C)(O)c1ccc(Nc2nc(-c3c(F)cccc3F)nc3c2C(=O)NC3)cc1 (stereo not drawn) [Compound I-14, 2-(4-((2-(2,6-difluorophenyl)-5-oxo-6,7-dihydro-5H-pyrrolo[3,4-d]pyrimidin-4-yl)amino)phenyl)-N-ethyl-2-hydroxypropanamide]
≤ 10 nM	10 to 100 nM	O=C1NCc2nc(-c3c(F)cccc3F)cc(Nc3ccc(N4CCC5(CCCCO5)CC4)cn3)c21 [Compound I-53, 4-((5-(1-oxa-9-azaspiro[5.5]undecan-9-yl)pyridin-2-yl)amino)-2-(2,6-difluorophenyl)-6,7-dihydro-5H-pyrrolo[3,4-b]pyridin-5-one]
